Results: ChEMBL document CHEMBL1128118, “Synthesis of biologically active 2-benzoyl paclitaxel analogues” (1995)

How the values were obtained:
Tubulin (Bos taurus) = Tubulin (Bos taurus) (UniProt Q6B856+Q862L2+Q862F3); test: Ratio of ED50 for microtubule polymerization to ED50 for paclitaxel; Relative paclitaxel ED50 = 1.0; type: functional
B16 = test: Ratio of ED50 of compound for B16 melanoma cytotoxicity to that of ED50 of paclitaxel; Relative paclitaxel ED50 = 1.0; type: functional, Mus musculus
P388 = test: Compound was tested for in vitro cytotoxicity against P388 cells; type: functional, Mus musculus

| Ratio (Tubulin (Bos taurus)) | SMILES | Ratio (B16) | Activity (P388) |
| --- | --- | --- | --- |
| 3.2 | CC(=O)O[C@H]1C(=O)[C@]2(C)[C@@H](O)CC3OC[C@@]3(OC(C)=O)[C@H]2[C@H](OC(=O)c2ccc(F)cc2)[C@]2(O)C[C@H](OC(=O)[C@H](O)[C@@H](NC(=O)c3ccccc3)c3ccccc3)C(C)=C1C2(C)C (some centres not stated) | >36 |  |
| 1.6 | CC(=O)O[C@H]1C(=O)[C@]2(C)[C@@H](O)CC3OC[C@@]3(OC(C)=O)[C@H]2[C@H](OC(=O)c2ccc(C)cc2)[C@]2(O)C[C@H](OC(=O)[C@H](O)[C@@H](NC(=O)c3ccccc3)c3ccccc3)C(C)=C1C2(C)C (some centres not stated) | 5.1 |  |
| 0.98 | CC(=O)O[C@H]1C(=O)[C@]2(C)[C@@H](O)CC3OC[C@@]3(OC(C)=O)[C@H]2[C@H](OC(=O)c2cc(Cl)cc(Cl)c2)[C@]2(O)C[C@H](OC(=O)[C@H](O)[C@@H](NC(=O)c3ccccc3)c3ccccc3)C(C)=C1C2(C)C (some centres not stated) | 1.8 |  |
| 1.1 | CC(=O)O[C@H]1C(=O)[C@]2(C)[C@@H](O)CC3OC[C@@]3(OC(C)=O)[C@H]2[C@H](OC(=O)c2cccc(Cl)c2)[C@]2(O)C[C@H](OC(=O)[C@H](O)[C@@H](NC(=O)c3ccccc3)c3ccccc3)C(C)=C1C2(C)C (some centres not stated) | 0.57 | 0.81 |
| 1 | CC(=O)O[C@H]1C(=O)[C@@]2(C)[C@H]([C@H](OC(=O)c3ccccc3)[C@]3(O)C[C@H](OC(=O)[C@H](O)[C@@H](NC(=O)c4ccccc4)c4ccccc4)C(C)=C1C3(C)C)[C@]1(OC(C)=O)CO[C@@H]1C[C@@H]2O [PACLITAXEL] | 1 | 1 |
| 1.1 | CC(=O)O[C@H]1C(=O)[C@]2(C)[C@@H](O)CC3OC[C@@]3(OC(C)=O)[C@H]2[C@H](OC(=O)c2ccccc2C)[C@]2(O)C[C@H](OC(=O)[C@H](O)[C@@H](NC(=O)c3ccccc3)c3ccccc3)C(C)=C1C2(C)C (some centres not stated) | 0.84 |  |
| 6 | COc1ccc(C(=O)O[C@H]2[C@H]3[C@](C)(C(=O)[C@H](OC(C)=O)C4=C(C)[C@@H](OC(=O)[C@H](O)[C@@H](NC(=O)c5ccccc5)c5ccccc5)C[C@]2(O)C4(C)C)[C@@H](O)CC2OC[C@]23OC(C)=O)cc1 (some centres not stated) | 22 |  |

The remaining lines, values behind:

| SMILES | Ratio (Tubulin (Bos taurus)) | Ratio (B16) | Activity (P388) |
| --- | --- | --- | --- |
| CC(=O)O[C@H]1C(=O)[C@]2(C)[C@@H](O)CC3OC[C@@]3(OC(C)=O)[C@H]2[C@H](OC(=O)c2ccc([N+](=O)[O-])cc2)[C@]2(O)C[C@H](OC(=O)[C@H](O)[C@@H](NC(=O)c3ccccc3)c3ccccc3)C(C)=C1C2(C)C (some centres not stated) | > 8.8 |  |  |
| CC(=O)O[C@H]1C(=O)[C@]2(C)[C@@H](O)CC3OC[C@@]3(OC(C)=O)[C@H]2[C@H](OC(=O)c2cccc(C)c2)[C@]2(O)C[C@H](OC(=O)[C@H](O)[C@@H](NC(=O)c3ccccc3)c3ccccc3)C(C)=C1C2(C)C (some centres not stated) | 1.7 | 1.6 |  |
| CC(=O)O[C@H]1C(=O)[C@]2(C)[C@@H](O)CC3OC[C@@]3(OC(C)=O)[C@H]2[C@H](OC(=O)c2cccc(C(F)(F)F)c2)[C@]2(O)C[C@H](OC(=O)[C@H](O)[C@@H](NC(=O)c3ccccc3)c3ccccc3)C(C)=C1C2(C)C (some centres not stated) | 0.64 | 2.7 |  |
| CC(=O)O[C@H]1C(=O)[C@]2(C)[C@@H](O)CC3OC[C@@]3(OC(C)=O)[C@H]2[C@H](OC(=O)c2cccc([N+](=O)[O-])c2)[C@]2(O)C[C@H](OC(=O)[C@H](O)[C@@H](NC(=O)c3ccccc3)c3ccccc3)C(C)=C1C2(C)C (some centres not stated) | 1.3 | 0.73 |  |
| CC(=O)O[C@H]1C(=O)[C@]2(C)[C@@H](O)CC3OC[C@@]3(OC(C)=O)[C@H]2[C@H](OC(=O)c2ccc(Cl)c(Cl)c2)[C@]2(O)C[C@H](OC(=O)[C@H](O)[C@@H](NC(=O)c3ccccc3)c3ccccc3)C(C)=C1C2(C)C (some centres not stated) | 0.45 | 2.7 |  |
| CC(=O)O[C@H]1C(=O)[C@]2(C)[C@@H](O)CC3OC[C@@]3(OC(C)=O)[C@H]2[C@H](OC(=O)c2ccc(Cl)cc2)[C@]2(O)C[C@H](OC(=O)[C@H](O)[C@@H](NC(=O)c3ccccc3)c3ccccc3)C(C)=C1C2(C)C (some centres not stated) | 0.79 | 3.1 |  |
